# Laboratory results from PMC11783113, “Mechanistic insights into the selective targeting of P2X3 receptor by camlipixant antagonist” (The Journal of Biological Chemistry, 2024).
# Experiments:
# [1] = target: P2X3 receptor (Canis lupus), first five N-terminal and last 33 C-terminal residues deleted (Canis lupus sp.); experiment: cryo-EM structure; camlipixant-bound P2X3 reconstituted into peptidisc; camlipixant at a molar ratio of 1:5, 30 min on ice; C3 symmetry
# P2X3 receptor [2] = target: T1, P2X3 receptor (Canis lupus, UniProt A0A8I3S575); experiment: MST Kd; cryo-EM structure of the P2X3–ATP complex; assay type: binding
# T1 construct: gene P2RX3; deletion of five first residues in the N-terminal region and the 33 last residues in the C-terminal region; homotrimer
# T1 sequence (A0A8I3S575 6-364): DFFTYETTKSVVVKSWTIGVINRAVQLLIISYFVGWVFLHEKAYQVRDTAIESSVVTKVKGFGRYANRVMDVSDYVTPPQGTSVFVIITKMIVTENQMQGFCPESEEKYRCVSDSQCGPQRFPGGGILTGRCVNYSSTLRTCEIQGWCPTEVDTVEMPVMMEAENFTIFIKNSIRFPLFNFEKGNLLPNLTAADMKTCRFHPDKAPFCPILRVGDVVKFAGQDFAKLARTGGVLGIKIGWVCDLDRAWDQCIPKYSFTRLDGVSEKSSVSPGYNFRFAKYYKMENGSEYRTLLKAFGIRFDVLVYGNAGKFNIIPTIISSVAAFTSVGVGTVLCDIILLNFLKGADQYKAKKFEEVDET
# P2X3 receptor [3] = target: T1, P2X3 receptor; experiment: ITC Kd; cryo-EM structure of the complex in peptidisc; also calcium influx IC50 […] in cells; assay type: binding
compound,measurement,setting,value
"P2X3 receptor (Canis lupus), first five N-terminal and last 33 C-terminal residues deleted",stoichiometry N,[1],3
Nc1ncnc2c1ncn2[C@@H]1O[C@H](COP(=O)(O)OP(=O)(O)OP(=O)(O)O)[C@@H](O)[C@H]1O [ATP],Kd,P2X3 receptor [2],2 µM
CNC(=O)c1cc(F)c(-c2nc3cc(C)ccn3c2C[C@H]2CN(C(=O)OC)CCO2)c(F)c1 [camlipixant],Kd,P2X3 receptor [3],0.1 µM
